Laboratory results as given in US9695155B2, “Herbicidal substituted pyrimidinyloxy benzene compounds” (E. I. DU PONT DE NEMOURS AND COMPANY, priority 2013, dated 2017).

What was measured:
[1] = system: field violet; assay: Test D postemergence; type: in vivo, Viola arvensis; conditions: Viola arvensis, post-emergence, scale 0 to 100 (0 no effect, 100 complete control), read-out: Plant response rating, Field Violet
Outline: (§1)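 Seeds sown in silt loam soil got preemergence sprays; plants in peat/vermiculite potting medium were sprayed postemergence at 2–18 cm (1- to 4-leaf stage). Chemicals were formulated in a non-phytotoxic solvent mixture with surfactant. After 7 to 21 days in a controlled environment, injury was rated visually versus controls, 0 (no effect) to 100 (complete control).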

[2] = system: blackgrass; assay: Test D preemergence; type: in vivo, Alopecurus myosuroides; conditions: Alopecurus myosuroides, pre-emergence
Outline: as §1

[3] = system: oilseed rape; assay: Test D postemergence; type: in vivo, Brassica napus; conditions: Brassica napus, post-emergence
Outline: as §1

[4] = system: foxtail, green; assay: Test F preemergence; type: in vivo, Setaria viridis; conditions: 21 days, scale 0 to 100
Outline: (§2)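 Preemergence application to seeded loam–sand soil, with compound delivered in a non-phytotoxic solvent plus surfactant; weed control assessed visually at 21 days (0–100 scale).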

[5] = system: speedwell; assay: Test D postemergence; type: in vivo, Veronica persica; conditions: Veronica persica, post-emergence
Outline: as §1

[6] = system: Italian ryegrass; assay: Test D preemergence; type: in vivo, Lolium multiflorum; conditions: Lolium multiflorum, pre-emergence
Outline: as §1

[7] = system: nutsedge, purple; assay: Test F preemergence; type: in vivo, Cyperus rotundus; conditions: 21 days, scale 0 to 100
Excerpt: (§3) Seeds of plant species selected from bermudagrass (Cynodon dactylon), surinam grass (Brachiaria decumbens), large (Lg) crabgrass (Digitaria sanguinalis), crabgrass, naked (naked crabgrass, Digitaria nuda), foxtail, green (green foxtail, Setaria viridis), johnsongrass (Sorghum halepense), kochia (Kochia scoparia), morningglory (pitted morningglory, Ipomoea lacunosa), nutsedge, purple (purple nutsedge, Cyperus rotundus), ragweed (common ragweed, Ambrosia elatior), mustard, black (black mustard, Brassica nigra), guineagrass (Panicum maximum), dallisgrass (Paspalum dilatatum), barnyardgrass (Echinochloa crus-galli), sandbur (southern sandbur, Cenchrus echinatus), sowthistle (common sowthistle, Sonchus oleraceous), Italian ryegrass (Lolium multiflorum), signalgrass (broadleaf signalgrass, Brachiaria platyphylla), dayflower (Virginia (VA) dayflower, Commelina virginica), bluegrass (annual bluegrass, Poa annua), quackgrass (Elytrigia repens), mallow (common mallow, Malva sylvestris), buckwheat, wild (wild buckwheat, Polygonum convolvulus), leafy spurge (Euphorbia esula), chickweed (common chickweed, Stellaria media), wild poinsettia (Euphorbia heterophylla), and pigweed (Amaranthus retroflexus) were planted into a blend of loam soil and sand and treated preemergence with test chemicals formulated in a non-phytotoxic solvent mixture which included a surfactant.
(§4) Treated plants and controls were maintained in a greenhouse for 21 days, after which time all species were compared to controls and visually evaluated. Plant response ratings, summarized in Table F, are based on a scale of 0 to 100 where 0 is no effect and 100 is complete control. A dash (-) response means no test result.

[8] = system: wild oat; assay: Test D preemergence; type: in vivo, Avena fatua; conditions: Avena fatua, pre-emergence
Outline: as §1

[9] = system: surinam grass; assay: Test F preemergence; type: in vivo, Brachiaria decumbens; conditions: 21 days, scale 0 to 100
Excerpt: as §3, §4

[10] = system: morningglory (pitted morningglory); assay: Test F preemergence; type: in vivo, Ipomoea lacunosa; conditions: 21 days, scale 0 to 100
Excerpt: as §3, §4

[11] = system: crabgrass, naked; assay: Test F preemergence; type: in vivo, Digitaria nuda; conditions: 21 days, scale 0 to 100
Outline: as §2

[12] = system: Italian ryegrass; assay: Test F preemergence; type: in vivo, Lolium multiflorum; conditions: 21 days, scale 0 to 100
Outline: as §2

[13] = system: deadnettle; assay: Test D postemergence; type: in vivo, Lamium amplexicaule; conditions: Lamium amplexicaule, post-emergence
Outline: as §1

[14] = system: winter barley; assay: Test D postemergence; type: in vivo, Hordeum vulgare; conditions: Hordeum vulgare, post-emergence, Postemergence, scale 0 to 100 (0 no effect, 100 complete control), read-out: Plant response rating, Barley, Winter
Outline: as §1

[15] = system: spring barley; assay: Test D postemergence; type: in vivo, Hordeum vulgare; conditions: Hordeum vulgare, post-emergence, Postemergence, scale 0 to 100 (0 no effect, 100 complete control), read-out: Plant response rating, Barley, Spring
Outline: as §1

N#Cc1cccc(Oc2ncc(Cl)cn2)c1-n1cc(OCC(F)(F)F)cn1 [Compound 274, 3-[(5-chloro-2-pyrimidinyl)oxy]-2-[4-(2,2,2-trifluoroethoxy)-1H-pyrazol-1-yl]benzonitrile]
pest or weed control at 31 g/ha ([1]; 31 g ai/ha): 75%
pest or weed control at 62 g/ha ([1]; 62 g ai/ha): 70%
pest or weed control at 125 g/ha ([1]; 125 g ai/ha): 85%
pest or weed control at 16 g/ha ([2]; 16 g ai/ha, scale 0 (no effect) to 100 (complete control), read-out: Plant response rating, Blackgrass): 10%
pest or weed control at 31 g/ha ([2]; 31 g ai/ha, scale 0-100, read-out: Plant response rating, Blackgrass): 30%
pest or weed control at 62 g/ha ([2]; 62 g ai/ha, scale 0-100, read-out: Plant response rating, Blackgrass): 70%
pest or weed control at 125 g/ha ([2]; 125 g ai/ha, scale 0-100, read-out: Plant response rating, Blackgrass): 95%
plant injury at 16 g/ha ([3]; 16 g ai/ha, scale 0-100, read-out: Plant response rating, Oilseed Rape): 40%
plant injury at 31 g/ha ([3]; 31 g ai/ha, scale 0 to 100 (0 no effect, 100 complete control), read-out: Plant response rating, Oilseed Rape): 55%
plant injury at 62 g/ha ([3]; 62 g ai/ha, scale 0 to 100 (0 no effect, 100 complete control), read-out: Plant response rating, Oilseed Rape): 65%
plant injury at 125 g/ha ([3]; 125 g ai/ha, scale 0 to 100 (0 no effect, 100 complete control), read-out: Plant response rating, Oilseed Rape): 75%
Plant response rating, Foxtail, Green ([4]; 16 g ai/ha): 100
Plant response rating, Foxtail, Green ([4]; 31 g ai/ha): 100
Plant response rating, Foxtail, Green ([4]; 62 g ai/ha): 100
Plant response rating, Foxtail, Green ([4]; 125 g ai/ha): 100
Plant response rating, Foxtail, Green ([4]; 250 g ai/ha): 100
pest or weed control at 16 g/ha ([5]; 16 g ai/ha, scale 0-100, read-out: Plant response rating, Speedwell): 75%
pest or weed control at 31 g/ha ([5]; 31 g ai/ha, scale 0 to 100 (0 no effect, 100 complete control), read-out: Plant response rating, Speedwell): 100%
pest or weed control at 62 g/ha ([5]; 62 g ai/ha, scale 0 to 100 (0 no effect, 100 complete control), read-out: Plant response rating, Speedwell): 85%
pest or weed control at 125 g/ha ([5]; 125 g ai/ha, scale 0 to 100 (0 no effect, 100 complete control), read-out: Plant response rating, Speedwell): 100%
pest or weed control at 16 g/ha ([6]; 16 g ai/ha, scale 0 (no effect) to 100 (complete control), read-out: Plant response rating, Ryegrass, Italian): 0%
pest or weed control at 31 g/ha ([6]; 31 g ai/ha, scale 0 (no effect) to 100 (complete control), read-out: Plant response rating, Ryegrass, Italian): 0%
pest or weed control at 125 g/ha ([6]; 125 g ai/ha, scale 0-100, read-out: Plant response rating, Ryegrass, Italian): 70%
Plant response rating, Nutsedge, Purple ([7]; 16 g ai/ha): 35
Plant response rating, Nutsedge, Purple ([7]; 31 g ai/ha): 50
Plant response rating, Nutsedge, Purple ([7]; 62 g ai/ha): 65
Plant response rating, Nutsedge, Purple ([7]; 125 g ai/ha): 85
Plant response rating, Nutsedge, Purple ([7]; 250 g ai/ha): 98
pest or weed control at 16 g/ha ([8]; 16 g ai/ha, scale 0 (no effect) to 100 (complete control), read-out: Plant response rating, Oat, Wild): 0%
pest or weed control at 31 g/ha ([8]; 31 g ai/ha, scale 0-100, read-out: Plant response rating, Oat, Wild): 0%
pest or weed control at 62 g/ha ([8]; 62 g ai/ha, scale 0-100, read-out: Plant response rating, Oat, Wild): 15%
pest or weed control at 125 g/ha ([8]; 125 g ai/ha, scale 0-100, read-out: Plant response rating, Oat, Wild): 25%
Plant response rating, Surinam Grass ([9]; 16 g ai/ha): 10
Plant response rating, Surinam Grass ([9]; 31 g ai/ha): 35
Plant response rating, Surinam Grass ([9]; 62 g ai/ha): 70
Plant response rating, Surinam Grass ([9]; 125 g ai/ha): 100
Plant response rating, Surinam Grass ([9]; 250 g ai/ha): 100
Plant response rating, Morningglory ([10]; 16 g ai/ha): 35
Plant response rating, Morningglory ([10]; 31 g ai/ha): 50
Plant response rating, Morningglory ([10]; 62 g ai/ha): 65
Plant response rating, Morningglory ([10]; 125 g ai/ha): 98
Plant response rating, Morningglory ([10]; 250 g ai/ha): 100
Plant response rating, Crabgrass, Naked ([11]; 16 g ai/ha): 100
Plant response rating, Crabgrass, Naked ([11]; 31 g ai/ha): 100
Plant response rating, Crabgrass, Naked ([11]; 62 g ai/ha): 100
Plant response rating, Crabgrass, Naked ([11]; 125 g ai/ha): 100
Plant response rating, Crabgrass, Naked ([11]; 250 g ai/ha): 100
Plant response rating, Ryegrass, Italian ([12]; 16 g ai/ha): 35
Plant response rating, Ryegrass, Italian ([12]; 31 g ai/ha): 40
Plant response rating, Ryegrass, Italian ([12]; 62 g ai/ha): 70
Plant response rating, Ryegrass, Italian ([12]; 125 g ai/ha): 75
Plant response rating, Ryegrass, Italian ([12]; 250 g ai/ha): 100
pest or weed control at 16 g/ha ([13]; 16 g ai/ha, scale 0-100, read-out: Plant response rating, Deadnettle): 50%
pest or weed control at 31 g/ha ([13]; 31 g ai/ha, scale 0 to 100 (0 no effect, 100 complete control), read-out: Plant response rating, Deadnettle): 45%
pest or weed control at 62 g/ha ([13]; 62 g ai/ha, scale 0 to 100 (0 no effect, 100 complete control), read-out: Plant response rating, Deadnettle): 60%
pest or weed control at 125 g/ha ([13]; 125 g ai/ha, scale 0 to 100 (0 no effect, 100 complete control), read-out: Plant response rating, Deadnettle): 70%
plant injury at 16 g/ha ([14]; 16 g ai/ha): 10%
plant injury at 31 g/ha ([14]; 31 g ai/ha): 20%
plant injury at 62 g/ha ([14]; 62 g ai/ha): 25%
plant injury at 125 g/ha ([14]; 125 g ai/ha): 30%
plant injury at 16 g/ha ([15]; 16 g ai/ha): 20%
plant injury at 31 g/ha ([15]; 31 g ai/ha): 25%
plant injury at 62 g/ha ([15]; 62 g ai/ha): 30%
plant injury at 125 g/ha ([15]; 125 g ai/ha): 35%
